Measurements taken from patent US12492189B2, “Solid forms of an HIV capsid inhibitor” (Gilead Sciences, Inc., priority 2017, dated 2025).

Assays:
[1] = Test C: Pharmacokinetic analysis following intravenous administration to Sprague-Dawley rats; assay type: in vivo
Description: (§2) Pharmacokinetic Analysis Following Intravenous Administration to Sprague-Dawley Rats and Beagle Dogs and Cynomolgous Monkeys
All IV formulations were in solution.
(§3) Each rat IV dosing group consisted of 3 male SD rats. […] The animals were fasted overnight prior to dose administration and up to 4 hr after dosing. Each dog IV dosing group consisted of 3 male, naïve beagle dogs. At dosing, the animals weighed ˜10-12 kg. The animals were fasted overnight prior to dose administration and up to 2 hr after dosing.
(§4) For the IV infusion group, the test compound was administered by intravenous infusion over 30 minutes. The rate of infusion was adjusted according to the body weight of each animal to deliver a dose of 1 mg/kg at 2 mL/kg.
(§5) Serial venous blood samples (approximately 0.4 mL each for rat and 1.0 mL for dog) were taken at specified time points after dosing from each animal. The blood samples were collected into Vacutainer™ tubes (Becton-Disckinson Corp, New Jersey, USA) containing EDTA as the anti-coagulant and were immediately placed on wet ice pending centrifugation for plasma. Centrifugation began within 1 hour of collection. All samples were placed into 96-well tubes and maintained on dry ice prior to storage at approximately −70° C.
(§6) An LC/MS/MS method was used to measure the concentration of test compounds in plasma.
(§7) Non-compartmental pharmacokinetic analysis was performed on the plasma concentration-time data.

pKa of Compound 1 = assay type: physicochemical
Text: (§1) In solution, the two atropisomers coexist in the ratio of about 1:5 to 1:8 (Isomer A:Isomer B), depending on temperatures and pH.

Human Liver Hepatocytes = experiment: Test D: Metabolic Stability in Cultured Human Liver Hepatocytes; assay type: in vitro ADME
Description: Test D. Metabolic Stability in Cultured Human Liver Hepatocytes
The final hepatocyte concentration was 1 million cells/mL. The hepatocyte/compound reaction mixture was dissolved in InVitroGRO™ KHB buffer (catalog #Z99074, BioreclamationIVT, Inc., Baltimore, MD) at pH 7.4. The incubations were performed in duplicate. A cell free control and a positive control were included in the incubations. The incubations were carried out with gentle shaking in a 37° C. incubator under a humid atmosphere of 95% air/5% CO2 (v/v). Aliquots (100 mL) were removed after 0, 1, 3, and 6 hours and added to 200 mL quenching solution that comprised 0.1% (v/v) TFA in 5% water/95% acetonitrile (v/v). The samples were placed on a shaker for 10 min, followed by centrifugation at 3000 g for 30 min. The samples of the supernatant were analyzed on a Dionex HPLC/PerkinElmer Flow Scintillation Analyzer as described below.
The column was a Phenomenex Synergi fusion RP (150×4.6 mm, 4 mm) maintained at 32 degrees Celsius. Mobile Phase A consisted of 0.1% (v/v) TFA in 99% water/1% acetonitrile (v/v). Mobile Phase B consisted of 0.1% (v/v) TFA in 5% water/95% acetonitrile (v/v). The flow rate was 1 mL/min using a sample injection volume of 100 mL.
Metabolic stability was determined by measuring the change in relative abundance of metabolites and parent over time and calculating from it the rate of disappearance of the parent compound. The stability data was utilized to calculate predicted human hepatic clearance values according to methods known in the art.

HIV-IIIb = experiment: Test A: Antiviral Assay in MT4 Cells; assay type: cell-based, HIV-1
Description: 1 mL Aliquots of MT4 cells were pre-infected for 3 hours at 37° C. with 25 μL of cell growth medium (mock-infected) or a fresh 1:250 dilution of an HIV-IIIb concentrated ABI stock (0.004 m.o.i.). Infected and uninfected cells were diluted in cell growth media and 35 μL (2000 cells) was added to each well of the assay plates.
Assay plates were then maintained in a humidified, 5% CO2 incubator at 37° C. After 5 days of incubation, 25 μL of 2× concentrated CellTiter-Glo™ Reagent (catalog #G7573, Promega Biosciences, Inc., Madison, WI) was added to each well of the assay plate. Cell lysis was carried out by incubating at room temperature for 10 minutes and then chemiluminescence was read using an Envision plate reader (PerkinElmer).

[2] = Pharmacokinetic profile after subcutaneous dosing of formulations in dogs (Formulation Examples A-D); assay type: in vivo; conditions: solution in 10% ethanol, 13% water, 6 mg/kg
Description: The suspension was administered to dogs subcutaneously at a dose of 6 mg/kg and the pharmacokinetic (PK) profile was determined.
The solution was administered to dogs subcutaneously at a dose of 6 mg/kg and the pharmacokinetic (PK) profile was determined.
Subjects were orally dosed with this formulation at 6 mg/kg. […] The solution was administered to dogs subcutaneously at a dose of 6 mg/kg and the pharmacokinetic (PK) profile was determined.

[3] = Test C: Pharmacokinetic analysis following intravenous administration to beagle dogs; assay type: in vivo
Description: as §2
All IV formulations were in solution.
as §3, §4, §5, §6, §7

[4] = Atropisomer equilibrium and interconversion in solution; assay type: physicochemical
Text: as §1

For `CC(C)(C#Cc1ccc(-c2ccc(Cl)c3c(NS(C)(=O)=O)nn(CC(F)(F)F)c23)c([C@H](Cc2cc(F)cc(F)c2)NC(=O)Cn2nc(C(F)(F)F)c3c2C(F)(F)[C@@H]2C[C@H]32)n1)S(C)(=O)=O` [Compound 1, N—((S)-1-(3-(4-Chloro-3-(methylsulfonamido)-1-(2,2,2-trifluoroethyl)-1H-indazol-7-yl)-6-(3-methyl-3-(methylsulfonyl)but-1-yn-1-yl)pyridin-2-yl)-2-(3,5-difluorophenyl)ethyl)-2-((3bS,4aR)-5,5-difluoro-3-(trifluoromethyl)-3b,4,4a,5-tetrahydro-1H-cyclopropa[3,4]cyclopenta[1,2-c]pyrazol-1-yl)acetamide], the “times longer in vivo terminal half-life in rat” value ([1]; relative to compound A) was “about 14 times”, the “times lower in vivo clearance in rat” value ([1]; relative to compound A) was “about 10 times” and the “times longer in vivo terminal half-life in rat” value ([1]; relative to compound B) was “about 9 times”. For the same compound, the “times lower in vivo clearance in rat” value ([1]; relative to compound B) was “about 8.6 times”, the pKa (pKa of Compound 1; weak acid, at sulfonamide) was 6.7 and the pKa (pKa of Compound 1; weak base, at pyridine) was under 1. For the same compound, the “Predicted Human Hepatic Clearance” value (Human Liver Hepatocytes; calculated from stability in pooled cryopreserved human hepatocytes, […], up to 6 hours) was 0.01 L/h/kg, the “times more stable in human hepatocytes (lower predicted hepatic clearance)” value (Human Liver Hepatocytes; relative to compound A) was “about 9 times” and the “times more stable in human hepatocytes (lower predicted hepatic clearance)” value (Human Liver Hepatocytes; relative to compound B) was “about 4 times”. For the same compound, the “times more potent in HIV antiviral assay” value (HIV-IIIb; relative to compound A) was “about 9 times”, the “times more potent in HIV antiviral assay” value (HIV-IIIb; relative to compound B) was “about 16 times” and the “plasma concentration of Compound 1 at day 28” value ([2]; 77% PEG 200 (200 mg/mL) with 1.2 molar equivalent NaOH (in situ sodium salt), FIG. 29) was “measurable”. The “plasma concentration of Compound 1 at day 28” value ([2]; 77% glycofurol (200 mg/mL) with 1.2 molar equivalent NaOH (in situ sodium salt), FIG. 30) was “measurable”, the “times longer in vivo terminal half-life in dog” value ([3]; relative to compound A) was “about 5 times” and the “times lower in vivo clearance in dog” value ([3]; relative to compound A) was “about 3 times”. For the same compound, the “times longer in vivo terminal half-life in dog” value ([3]; relative to compound B) was “about 4 times”, the “times lower in vivo clearance in dog” value ([3]; relative to compound B) was “about 4 times” and the half-life ([4]; in solution at 37° C., read-out: t½ of re-equilibration of separated atropisomers) was 60 to 120 min. For the same compound, the rotational energy barrier ([4]; rotation along one of the C—C bonds (atropisomers)) was “about 24 kcal/mol”.
Work on `Cn1nc(NS(C)(=O)=O)c2c(Cl)ccc(-c3ccc(C#CC(C)(C)O)nc3[C@H](Cc3cc(F)cc(F)c3)NC(=O)Cn3nc(C(F)(F)F)c4c3C(F)(F)[C@@H]3C[C@H]43)c21` [Compound B, reference compound] yielded an EC50 (HIV-IIIb; Human immunodeficiency virus 1, IIIB, MT4, 120 h) of 2.99 nM.
